From patent US20260373135A1, “Methods of Treatment with Tradipitant” (Vanda Pharmaceuticals Inc., priority 2022, published 2026)
Where two headings read alike, the source gives them in different places.

How the values were obtained:
NK-1 receptors = conditions: preclinical and clinical studies; cited from earlier work
[1] = Four-period, two-way crossover open label single-dose food-effect pharmacokinetic study of tradipitant capsules in healthy participants (plasma tradipitant and metabolites M2, M3, M4, M8); type: in vivo, human; conditions: for AUC(0-t), Least Squares Geometric Mean Ratio (%), Estimate / AUC(inf), Least Squares Geometric Mean Ratio (%), Estimate / Cmax, Least Squares Geometric Mean Ratio (%), Estimate: fed/fasted; for Tmax / AUC(0-t) / AUC(0-inf) / Cmax: plasma; for Tmax: median; for AUC(inf) Ratio of geometric means (170 mg / 85 mg) / Cmax Ratio of geometric means (170 mg / 85 mg): 85 mg vs 170 mg tradipitant
Procedure: To evaluate the pharmacokinetics and effect of food on the bioavailability of single-dose capsules containing 170 mg tradipitant and 85 mg tradipitant, an open label, four-period, two-way crossover study is performed. The study comprises two cohorts, each of which conducts a screening phase and an evaluation phase. Cohort 1 only conducts Period 1 and Period 2 (FIG. 5), while Cohort 2 only conducts Period 3 and Period 4 (FIG. 6). It is possible for a participant in Cohort 1 to be a Participant in Cohort 2.
The screening phase (Day-21 to Day-2, FIGS. 5-6) consists of a screening visit wherein an informed consent is obtained from potential participants, and their eligibility is initially assessed based on vital signs, body measurements, physical examination, ECG, clinical laboratory tests, drug and alcohol screen, and medical history. Clinical laboratory testing includes a pharmacogenetics sample for whole genome sequencing. Participants may include men or women aged 18-55 years, inclusive at the time of screening; having a Body Mass Index (BMI) of ≥18.0 and ≤39.0 kg/m^2 (BMI=weight (kg)/[height (m)]^2); and female participants of childbearing potential must be non-pregnant and non-lactating. Participants must be in good health as determined by a medical and psychiatric history, physical examination, electrocardiogram, and serum chemistry and hematology; willing to comply with study procedures and restrictions; willing to provide a pharmacogenetic sample; and have negative test result for selected substances of abuse at screening. Individuals may be excluded from participating based on history (within the 12 months prior to screening) of psychiatric disorders; current clinically significant cardiovascular, respiratory, neurologic, hepatic, hematopoietic, renal, gastrointestinal, or metabolic dysfunction unless currently controlled and stable; history of intolerance and/or hypersensitivity to other NK-1 receptor antagonists; clinically significant deviation from normal in clinical laboratory results, vital signs measurements, or physical examination findings at screening as determined by the clinical investigator; major surgery, trauma (including broken pelvis/legs), illness (e.g. sepsis), or immobility for 3 or more days within the past month; active cancer or cancer treatment within the past 6 months prior to screening; central venous catheter in place or within the past month; impaired liver function indicated by AST, ALT, or bilirubin >2 times the upper limit of normal, unless there is an isolated bilirubin >2 times the upper limit of normal due to Gilbert's syndrome; pregnancy or recent pregnancy (within 6 weeks prior to screening) or women who are breastfeeding; history of drug or alcohol abuse as defined in DSM-V, Diagnostic Criteria for Drug and Alcohol Abuse, within the 12 months prior to screening and/or regular consumption of alcoholic drinks (>2 drinks/day or >14 drinks/week); randomization in a previous tradipitant trial; and participants at risk of suicide, in the opinion of the Investigator. […]

[2] = fasted conditions, 85 mg vs 170 mg

increase in Tmax in the fed state ([1]; 85 mg tradipitant oral, fed vs fasted): 2 fold | AUC(0-t), Least Squares Geometric Mean Ratio (%), Estimate ([1]; 85 mg tradipitant oral): 234.21% | AUC(inf), Least Squares Geometric Mean Ratio (%), Estimate ([1]; 85 mg tradipitant oral): 263.08% | Cmax, Least Squares Geometric Mean Ratio (%), Estimate ([1]; 85 mg tradipitant oral): 437.59% | Cmax, Least Squares Geometric Mean Ratio (%), Estimate ([1]; 85 mg tradipitant oral, listed as Tradipitant): 473.59% | Tmax ([1]; 170 mg tradipitant oral, fasted): 1.50 (15) hr | AUC(0-t), Least Squares Geometric Mean Ratio (%), Estimate ([1]; 170 mg tradipitant oral): 328.21% | AUC(inf), Least Squares Geometric Mean Ratio (%), Estimate ([1]; 170 mg tradipitant oral): 381.70% | Cmax, Least Squares Geometric Mean Ratio (%), Estimate ([1]; 170 mg tradipitant oral): 703.87% | Tmax ([1]; 170 mg tradipitant oral, fed): 4.00 (15) hr | dose proportionality of AUC(inf) [1, 2]: close to dose proportional | dose proportionality of Cmax [1, 2]: less than dose proportionality | AUC(inf) Ratio of geometric means (170 mg / 85 mg) ([1]; fasted conditions): 1.92 | Cmax Ratio of geometric means (170 mg / 85 mg) ([1]; fasted conditions): 1.32 | AUC(inf) Ratio of geometric means (170 mg / 85 mg) ([1]; fed conditions): 2.30 | Cmax Ratio of geometric means (170 mg / 85 mg) ([1]; fed conditions): 1.93 | AUC(0-t) ([1]; human, po, 85 mg, 85 mg tradipitant oral, fasted, ln-transformed, read-out: AUC(0-t), Least Squares Geometric Mean, Fasted): 1650 ng·h/mL | AUC(0-inf) ([1]; human, po, 85 mg, 85 mg tradipitant oral, fasted, ln-transformed, read-out: AUC(inf), Least Squares Geometric Mean, Fasted): 1790 ng·h/mL | Cmax ([1]; human, po, 85 mg, 85 mg tradipitant oral, fasted, ln-transformed, read-out: Cmax, Least Squares Geometric Mean, Fasted): 84.7 ng/mL | AUC(0-inf) ([1]; human, po, 85 mg, 85 mg tradipitant oral, fasted, geometric mean [geometric % CV], read-out: AUC(inf)): 1840 ng·h/mL | Cmax ([1]; human, po, 85 mg, 85 mg tradipitant oral, fasted, geometric mean [geometric % CV], read-out: Cmax): 84.7 ng/mL | Tmax ([1]; human, po, 85 mg, 85 mg tradipitant oral, fasted, read-out: Tmax): 2 h | AUC(0-t) ([1]; human, po, 85 mg, 85 mg tradipitant oral, fed, ln-transformed, read-out: AUC(0-t), Least Squares Geometric Mean, Fed): 3860 ng·h/mL | AUC(0-inf) ([1]; human, po, 85 mg, 85 mg tradipitant oral, fed, ln-transformed, read-out: AUC(inf), Least Squares Geometric Mean, Fed): 4700 ng·h/mL | Cmax ([1]; human, po, 85 mg, 85 mg tradipitant oral, fed, ln-transformed, read-out: Cmax, Least Squares Geometric Mean, Fed): 401 ng/mL | AUC(0-inf) ([1]; human, po, 85 mg, 85 mg tradipitant oral, fed, geometric mean [geometric % CV], read-out: AUC(inf)): 4520 ng·h/mL | Cmax ([1]; human, po, 85 mg, 85 mg tradipitant oral, fed, geometric mean [geometric % CV], read-out: Cmax): 401 ng/mL | Tmax ([1]; human, po, 85 mg, 85 mg tradipitant oral, fed, read-out: Tmax): 4 h | AUC(0-t) ([1]; human, po, 170 mg, 170 mg tradipitant oral, fasted, ln-transformed, read-out: AUC(0-t), Least Squares Geometric Mean, Fasted): 2800 ng·h/mL | AUC(0-inf) ([1]; human, po, 170 mg, 170 mg tradipitant oral, fasted, ln-transformed, read-out: AUC(inf), Least Squares Geometric Mean, Fasted): 2730 ng·h/mL | Cmax ([1]; human, po, 170 mg, 170 mg tradipitant oral, fasted, ln-transformed, read-out: Cmax, Least Squares Geometric Mean, Fasted): 111 ng/mL | AUC(0-inf) ([1]; human, po, 170 mg, 170 mg tradipitant oral, fasted, geometric mean [geometric % CV], read-out: AUC(inf)): 3530 ng·h/mL | Cmax ([1]; human, po, 170 mg, 170 mg tradipitant oral, fasted, geometric mean [geometric % CV], read-out: Cmax): 112 ng/mL | Tmax ([1]; human, po, 170 mg, 170 mg tradipitant oral, fasted, read-out: Tmax): 1.5 h | AUC(0-t) ([1]; human, po, 170 mg, 170 mg tradipitant oral, fed, ln-transformed, read-out: AUC(0-t), Least Squares Geometric Mean, Fed): 9180 ng·h/mL | AUC(0-inf) ([1]; human, po, 170 mg, 170 mg tradipitant oral, fed, ln-transformed, read-out: AUC(inf), Least Squares Geometric Mean, Fed): 10400 ng·h/mL | Cmax ([1]; human, po, 170 mg, 170 mg tradipitant oral, fed, ln-transformed, read-out: Cmax, Least Squares Geometric Mean, Fed): 778 ng/mL | AUC(0-inf) ([1]; human, po, 170 mg, 170 mg tradipitant oral, fed, geometric mean [geometric % CV], read-out: AUC(inf)): 10400 ng·h/mL | Cmax ([1]; human, po, 170 mg, 170 mg tradipitant oral, fed, geometric mean [geometric % CV], read-out: Cmax): 774 ng/mL | Tmax ([1]; human, po, 170 mg, 170 mg tradipitant oral, fed, read-out: Tmax): 4 h
SMILES: O=C(c1ccccc1Cl)c1cccnc1-c1nnn(Cc2cc(C(F)(F)F)cc(C(F)(F)F)c2)c1-c1ccncc1 [tradipitant, {2-[1-(3,5-Bistrifluoromethylbenzyl)-5-pyridin-4-yl-1H-[1,2,3]triazol-4-yl]-pyridin-3-yl}-(2-chlorophenyl)-methanone]
blockade of brain NK-1 receptors (NK-1 receptors): long-lasting blockade of brain NK-1 receptors | effect of fed state on absorption (extent/rate, Tmax) ([1]; fed vs fasted, both 170 mg and 85 mg doses): an increase in the extent and a decrease in the rate of absorption
